# From US20260069538A1, “CXCR4 ANTAGONIST LOADED LIPOSOMES AND SILICASOMES” (The Regents of the University of California, priority 2021, published 2026)
# Like-named read-outs stand apart in the source and are kept apart here.
# What was measured:
# [1] = Remote loading of CXCR4 antagonists in silicasomes (encapsulation efficiency, loading capacity); format: physicochemical; conditions: for EE % / LC %: silicasome
# Protocol: Following the application of a lipid bilayer, we used the weak basic properties of the of CXCR4 antagonists (AMD3100, AMD3465, AMD070) to attempt silicasome remote loading. To optimize the loading efficiency, two type of trapping agents, triethylammonium sucrose octasulfate (TEA8SOS) and ammonium sulfate ((NH4)2SO4) were tested. Briefly, for lipid coating, 40 mg/mL of the purified MSNPs were soaked in trapping agent solution (80 mM TEA8SOS or 300 mM (NH4)2SO4)) and were added to an ˜50% (w/v) lipids mixture (DSPC/Chol/DSPE-PEG2000, in the molar ratio of 3:2:0.15) solution in ethanol. The MSNP:lipid ratio was 1:1.25 (w/w). The suspension was sonicated using probe sonication (Ultrasonic Processor Model VCX130, 40% amplitude) at a 15 s/15 s on/off cycle.
# The free trapping agent was removed through size exclusion chromatography using Sepharose CL-4B resin with a HEPES-buffered dextrose solution (5 mM HEPES, 5% dextrose, pH 6.5) for elution. For drug import, trapping agent-loaded particles were mixed with drug and incubated at 65° C. for 0.5 hour. The drug-laden silicasomes were purified by centrifugation to remove the free drug and liposomes; then filtered with a 0.2 μm membrane for sterilization. The drug concentration was determined by either UV spectroscopy or HPLC. Particle hydrodynamic size and zeta potential were measured by a ZETAPALS instrument (Brookhaven Instruments Corporation). The final product was visualized by cryoEM (TF20 FEI Tecnai-G2) to confirm the uniformity and integrity of the coated lipid bilayer.
# [2] = for EE % / LC %: liposome DSPC:Chol:DSPE-PEG2000 3:2:0.15, drug feed ratio 20% (drug:lipids w/w)
# Protocol: This was followed by incubating the liposome suspension in the suspended CXCR4 antagonists using a feed ratio of 20%. The non-incorporated drug was removed by a PD-10 column.
# To perform the drug loading, Mavorixafor (MAV or AMD11070) was prepared as stock solution in PBS and added at 20% w/w over the total wt. of the lipids. The MAV/liposome mixed solution was then heated at 65° C. for 1 h then cooled at room temperature for 30 minutes. The separation of encapsulated liposomal MAV (L-MAV) and non-encapsulated MAV (free MAV) was again, through the use of PD10 size exclusion column.
# The elution profile of the free MAV is pre-determined by eluting free MAV through the PD10 and measuring the UV absorbance for each elution fraction at λmax 275 nm. In a typical run a 95%+ MAV recovery will be found between 10-20 mL fractions. The free-MAV fractions was collected and combined to quantify the free-MAV by UV at λmax 275 nm. Again, the L-MAV was collected from elution 2.75-5.75 mL (3 mL in total), the free-MAV was collected from 10-20 mL fractions.
# Based on the free-MAV quantification, the drug loading of L-MAV was back calculated by subtracting the free MAV from the initial MAV feeding=20% w/w. […] Based on the drug loaded L-MAV concentration (mg/mL), L-MAV was concentrated by using 50 mL VIVA-spin tubes at 30 kDa cut-off to a final concentration of 0.1 mg/mL (=0.5 mg/kg per 200 μL injection for a 20 g mouse).
# [3] = system: human PDAC slices; conditions: cited from earlier work
# [4] = system: metastatic BC models (including 4T1); conditions: in vivo; cited from earlier work
# [5] = system: X4 HIV strains; conditions: read-out: inhibits the replication of X4 HIV strains (IC50); cited from earlier work
# [6] = system: EMT6 tumors; assay: Orthotopic EMT6 breast cancer model; format: in vivo, mouse (Balb/c)
# [7] = system: KPC tumors; assay: Orthotopic KPC model: tumor weight and immunophenotyping; format: in vivo, mice
# [8] = system: 4T1 tumors; assay: Orthotopic 4T1 TNBC tumor model; conditions: for tumor shrinkage / tumor size: orthotopic 4T1, IV administration
# Description: Orthotopic 4T1 tumors were established as described in FIGS. 2-4.
# [9] = (NH4)2SO4, drug feed ratio 50% (drug:MSNP w/w)
# [10] = TEA8SOS, drug feed ratio 50% (drug:MSNP w/w)
# [11] = TEA8SOS, drug feed ratio 10% (drug:MSNP w/w)
# [12] = TEA8SOS, drug feed ratio 20% (drug:MSNP w/w)
"EE % [1, 9]","LC % [1, 9]","EE % [1, 10]","LC % [1, 10]",EE % ([2]; (NH4)2SO4),LC % ([2]; (NH4)2SO4),EE % ([2]; TEA8SOS),LC % ([2]; TEA8SOS),SMILES,further results
27%,13.5%,51%,25.5%,19%,3.8%,42.4%,8.5%,"c1cc(CN2CCCNCCNCCCNCC2)ccc1CN1CCCNCCNCCCNCC1 [AMD3100, Plerixafor]",CTL migration to the juxta-tumoral PDAC compartment ([3]; tumor cell slices): improve CTL migration to the juxta-tumoral PDAC compartment; CD8+ T-cell-mediated elimination of EpCAM+ PDAC cancer cells ([3]; tumor slice culture): did not exert similar effects; CTL recruitment [4]: increase CTL recruitment; blood perfusion [4]: improve blood perfusion; desmoplasia [4]: decrease desmoplasia; immunosuppression [4]: decrease immunosuppression; metastatic spread [4]: limit metastatic spread
68%,34%,70%,35%,55.8%,11.2%,84.3%,16.9%,"NCCCCN(Cc1nc2ccccc2[nH]1)[C@H]1CCCc2cccnc21 [AMD11070, Mavorixafor]","loading capacity ([1]; silicasome in which sucrose sulfate was used (FIG. 11)): 20%; EE % [1, 11]: 95%; LC % [1, 11]: 9.5%; EE % [1, 12]: 85%; LC % [1, 12]: 17%; tumor growth / tumor shrinkage [6]: neither free nor L-AMD11070 were able to interfere in tumor growth; CXCR4 staining intensity (immunohistochemistry) [7]: encapsulated but not free AMD11070 delivery could significantly increase CXCR4 staining intensity; Typical MAV loading ([2]; liposome, 240 mM (NH4)2SO4, MAV feeding 20% w/w, back calculated from free MAV): 8-15 % w/w; best loading capacity (LC) in liposomes ([2]; liposomes): 17%; T cell exclusion in the tumor margin (immunohistochemistry) ([8]; 4T1 breast cancer tumors): interference in T cell exclusion in the margin; CD8+ spatial distribution during mIHC analysis ([8]; orthotopic 4T1): failed to show a significant effect; lung metastasis (IVIS imaging of explanted lungs) ([8]; orthotopic 4T1): significant metastasis reduction; tumor shrinkage / tumor size ([8]; listed as Free AMD11070): leads to tumor shrinkage; tumor shrinkage / tumor size ([8]; listed as free AMD11070): tumor shrinkage could be obtained; lung metastasis (IVIS imaging of explanted lungs) ([8]; orthotopic 4T1, listed as free AMD11070): significant impact on lung metastases"

SMILES,"EE % [1, 9]","LC % [1, 9]","EE % [1, 10]","LC % [1, 10]",EE % ([2]; (NH4)2SO4),LC % ([2]; (NH4)2SO4),EE % ([2]; TEA8SOS),LC % ([2]; TEA8SOS),further results
c1ccc(CNCc2ccc(CN3CCCNCCNCCCNCC3)cc2)nc1 [AMD3465],34.5%,17.3%,25%,12.5%,68.4%,13.7%,37.4%,7.5%,IC50 [5]: 1 to 10 nM
